For 15 molecules, TGI results are on record in PubChem BioAssay (NCI).

The structures appear in SMILES notation.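 Grown in 96-well plates, cells were treated for 48 hours with each compound at five concentrations. Insufficient inhibition: endpoint recorded as highest concentration tested. TGI denotes the concentration required for complete inhibition of growth.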

Holding throughout (assay): inhibition of tumour cell growth, NCI panel, 48 h
Assay [1] has as its system SF-268 CNS.
Assay [2] concerns OVCAR-5 ovarian.
Assay [3] concerns SK-OV-3 ovarian.
The subject of assay [4] is ACHN renal.
Assay [5] concerns HCT-116 colon.
Assay [6] has as its system DU-145 prostate.
The test system of assay [7] is UO-31 renal.
Assay [8] deals with NCI/ADR-RES ovarian.
Assay [9] has as its system LOX IMVI melanoma.
Assay [10] deals with T-47D breast.
Assay [11] deals with NCI-H522 lung.

For the molecule `c1ccc2oc(-c3ccc(-c4nc5ccccc5o4)c4c3CC4)nc2c1`, the TGI in assay [1], in assay [2], in [3], in assay [4], in assay [5] and in [6] was over 100 µM throughout. The TGI in assay [7], in [8], in assay [9] and in assay [10] was over 100 µM throughout.

For the molecule `CC(C)=CCN1CC(C)C(=O)Nc2ccccc21` (stereo not given), the TGI in [1], in assay [2], in assay [3], in [4], in assay [11] and in assay [5] was over 100 µM in each case. Moreover, the TGI in assay [6], in [7], in [9] and in [10] was over 100 µM throughout.

Consider `C[C@]12C[C@@H](OC(=O)[C@]1(C)O)[C@@H]([C@]1(O)CC[C@H]3[C@@H]4C[C@H]5O[C@]56C[C@H]5O[C@H]5C(=O)[C@]6(C)[C@H]4CC[C@@]31C)C2`, for which the TGI in [1], in assay [2], in assay [3], in assay [4], in [11] and in [5] was over 50 µM in each case. Further, the TGI in [6], in assay [7], in assay [8] and in assay [10] was over 50 µM each time.

Regarding `CCN(CC)c1ccc2c(c1)Oc1ccc(N(CC)CC)cc1C21Oc2ccccc2-c2c1c1ccccc1n2CC` (stereo not given), the TGI in assay [1] is over 100 µM; in assay [3], over 100 µM; in assay [4], over 100 µM; in assay [11], 5.06 µM; in [5], over 100 µM; in assay [7], 63.2 µM. The molecule also came in with a TGI in assay [9] of over 100 µM.

On to `CC1(C)CNCC(C)(OCc2ccccc2)C(=O)NC(C)(C)CNCC(C)(OCc2ccccc2)C(=O)N1` (stereo not given), for which the TGI in assay [1], in assay [2], in assay [3], in [4], in [5] and in assay [6] was over 10 µM each time. Moreover, the TGI in assay [7], in assay [9] and in assay [10] was over 10 µM each time.

For `O=C(/C=C/c1ccccc1)Oc1ccc(C(=O)/C=C/c2ccc(Cl)cc2)cc1`, the TGI in [1], in assay [2], in assay [3], in [4], in [5] and in assay [6] was over 100 µM throughout. Also, the TGI in assay [7], in assay [8] and in [10] was over 100 µM throughout.

For the molecule `CC1CN=C(N(Cc2ccccc2)C(=O)Nc2ccc(Cl)c(Cl)c2)S1` (stereo not given), the TGI in assay [1] was over 100 µM; in assay [2], over 100 µM; in assay [3] it was over 100 µM; in assay [4] it was 75 µM; in assay [5] it was over 100 µM; in [6] it was over 100 µM. Moreover, the TGI was 97.9 µM in [7], over 100 µM in assay [8], over 100 µM in assay [9] and over 100 µM in [10].

On to `NNC(=O)c1c(-c2cccnc2)cnc2ccccc12`, for which the TGI in assay [1], in assay [2], in assay [3], in assay [4], in assay [11] and in [5] was over 100 µM in each case. Further, the TGI in assay [6], in assay [7] and in [8] was over 100 µM in each case.

For the molecule `CCOC(=O)N1N=C(/C(C)=N/OC)C(C)S1=O` (stereo not given), the TGI in [1], in assay [2], in assay [3], in [4], in assay [11] and in assay [5] was over 100 µM in each case. In addition, the TGI in assay [6], in assay [7], in [8] and in assay [10] was over 100 µM each time.

Take `CCCCCCCC1(N=[N+]=[N-])C(=O)Nc2ccccc2C1=O` (stereo not given): the TGI in assay [1] came out at 33.3 µM; in assay [2], 34 µM; in assay [3], 30.4 µM; in [4] it was 28.6 µM; in assay [5], 32.6 µM; in [6], 31.8 µM. Further, the TGI came to 25.3 µM in [7], 48.5 µM in assay [8], 26.9 µM in assay [9] and 35 µM in assay [10].

On to `C/C=C/C#CC#C/C=C/C=C/C(O)CCO` (stereo not given), for which the TGI in assay [1], in assay [2], in assay [3], in assay [4], in [11] and in assay [5] was over 23.1 µM in each case. Besides, the TGI in assay [7] and in [9] was over 23.1 µM each time.

In the case of `CN(C)C(=NCc1ccccc1)NC#N`, the TGI in assay [1], in assay [3], in assay [4], in assay [11], in assay [5] and in assay [7] was over 100 µM in each case. In assay [9], this molecule registered a TGI of over 100 µM.

For `COc1cc(O)c2c(=O)c(O)c(-c3ccc(O)c(OC)c3)oc2c1`, the TGI was over 100 µM in assay [1]; over 100 µM in [2]; 6.21 µM in assay [11]; over 100 µM in assay [5]; over 100 µM in assay [6]; over 100 µM in assay [8]. In addition, the TGI in assay [9] and in [10] was over 100 µM in each case.

On to `NC1CC(=O)c2c1sc(Cl)c2Cl` (stereo not given), for which the TGI in [1], in [2], in assay [3], in [4], in assay [5] and in assay [6] was over 100 µM in each case. Also, the TGI in [7], in assay [8] and in assay [10] was over 100 µM in each case.

In the case of `O=CNCNCCO`, the TGI in assay [1], in [2], in assay [3], in assay [4], in [5] and in [6] was over 100 µM each time. For the same molecule, the TGI in assay [7], in assay [8] and in assay [10] was over 100 µM each time.
